One may read the solubility as the concentration that dissolves in the medium under given conditions. A lower solubility goes with little dissolved substance.

Each structure is given as a SMILES string. ≈ marks a conversion by molar mass, not a printed value. Where only a bound is given, the exact number is not on record here.

Data set [1] in a line: Assay 6 Trypanosoma cruzi intracellular assay, cytotoxicity against H9c2 cells. It is filed as cell-based. The following applies: rat, H9C2 cardiomyocytes infected with T. cruzi trypomastigotes, total number of H9C2 cells, minimum threshold 4.3, read-out: cytotoxicity against H9c2 cells, pEC50 (converted). Here is the method:
Compounds were dispensed into black 384-well assay plates (Greiner) by acoustic dispensing (LabCyte ECHO). For potency determinations, eleven-point, one in three dilution curves were generated, with a top concentration of 50 μM. H9C2 rat cardiomyocytes cells were dispensed in T225 tissue culture flasks and after 4 hours they were infected during 18 hours with T. cruzi trypomastigotes in the same T225 tissue culture flasks at a multiplicity of infection of 1. Next, any remaining free trypomastigotes were washed away with PBS and the infected H9C2 cells were harvested by trypsinisation. The infected H9C2 cells were then plated into 384-well plates containing the compounds to be tested, at 2500 cells per well in DMEM media with 2% FBS, 1% Penicillin/Streptomocin, 2 mM L-Glutamine, 1 mM Na Pyruvate and 25 mM HEPES. After 72 h incubation at 37° C. in presence of 5% CO2, the plates were fixed and stained with 4% formaldehyde and 2 μM Draq5 for 3 hours at room temperature. The plates were imaged on a Perkin Elmer Opera high-content imaging system using a 20× air objective. Images were analysed using the Acapella building blocks system (Perkin Elmer). The image analysis algorithm first identified the H9C2 nuclei followed by demarcation of the cytoplasm and identification of intracellular amastigotes. This algorithm reported mean number of parasites per H9C2 cell, the percentage of infected H9C2 cells and the total number of H9C2 cells.

The subject of data set [2] is Trypanosoma cruzi. The experiment in a line: Assay 6 Trypanosoma cruzi intracellular assay (infected H9C2 cells). It is filed as cell-based. The following applies: H9c2, in Rattus norvegicus, 72 h, infected H9C2 rat cardiomyocytes, read-out: pEC50 value against Trypanosoma cruzi (converted). The method in brief: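 Infected H9C2 rat cardiomyocytes (T. cruzi trypomastigotes, MOI 1, 18 h) plated at 2500 cells/well on compound, 11-point 1:3 curves from 50 μM top, 72 h at 37 °C in 2% FBS DMEM. Fixed, Draq5-stained, high-content imaged; algorithm counts parasites per cell, % infected cells and total host cells (cytotoxicity).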

Another data set relates to Leishmania donovani. Kind of data set: Assay 1 intramacrophage Leishmania donovani assay (potency readout). It is filed as cell-based. As to conditions: amastigotes in PMA-treated THP-1 macrophages, 96 h, average number of amastigotes per cell, minimum threshold 4.3, read-out: pEC50 value against Leishmania donovani (converted). As for the experimental part: (§1) The intramacrophage Leishmania assay was performed using a modified version of the method described in De Rycker et al. (Antimicrob Agents Chemother. 2013 July; 57(7):2913-22. Comparison of a high-throughput high-content intracellular Leishmania donovani assay with an axenic amastigote assay. De Rycker M, Hallyburton I, Thomas J, Campbell L, Wyllie S, Joshi D, Cameron S, Gilbert I H, Wyatt P G, Frearson J A, Fairlamb A H, Gray D W.). Procedure: 350 nl of compound was pre-dispensed into 384 well sterile intermediary plates. For single point screening, amphotericin B was added to all wells of column 24 as a positive control (final concentration 2 μM) and DMSO to column 23. For potency determinations, ten-point, one in three dilution curves were created with the highest concentration being 50 μM and on each plate a control curve of amphotericin B was included. Controls were as follows: columns 11 and 12: DMSO, columns 23 and 24: amphotericin B (final concentration 2 μM). To the intermediary plates, 35 μl of THP-1 media was added and plates were shaken for >5 min to ensure complete mixing. THP-1 cells (8,000 per well, 50 μl) were plated into black clear-bottom 384 well plates (Corning) in presence of 20 nM PMA. After 20 min at RT, the plates were incubated at 37° C. under 5% CO2 in a humidified incubator for 75 h. The cells were then washed with […] sterile phosphate buffered saline (PBS) supplemented with 1 mM CaCl2, 0.5 mM MgCl2, 0.1% (w/v) bovine serum albumin (PBS-A) and amastigotes were added to all wells at a multiplicity of infection of 5 (40,000 amastigotes per well). After 40 min at RT, plates were returned to the incubator. Amastigotes were incubated in the presence of THP-1 macrophages for 16 h. Any remaining extracellular amastigotes were subsequently removed with an overflow wash of 1 mL PBS-A per well (wash buffer is being aspirated from the top of the well as it is being dispensed) followed by addition of 25 μl of the compound pre-dilutions using a Fluidx Ipette-pro pipetting station. The final dilution of each compound was 200-fold. Plates were incubated for 96 h and then washed (250 μl PBS-A) and fixed (4% (v/v) formaldehyde-PBS, 30 min, RT). After fixation, the wells were washed with 250 μl PBS, stained (10 μg/mL DAPI, 0.4 μg mL-1 HCS Cellmask Deep Red in PBS+0.1% (v/v) Triton X-100, 30 min, RT) and washed with 250 μl PBS. Finally, PBS+0.05% (v/v) thimerosal was added to the wells, the plates were sealed and imaged on a high-content microscope (GE IN Cell 2000) using a 10× objective. Image analysis was carried out with GE IN Cell Analyzer 1000 Workstation using the “Multi Target Analysis” module. Settings for segmentation were as follows: nuclei: minimum area: 142.384 μm2, sensitivity: 81, method: top-hat; cells: characteristic area: 2500 μm2, sensitivity: 60, method: multiscale top-hat; organelles (amastigotes): granule size 1-3, 3 scales, sensitivity: 90, detection in entire cell. For each well, i) THP-1 cell count (cytotoxicity readout) and ii) average number of amastigotes per cell (potency readout) were calculated, both in terms of pEC50 values.

For another data set, the system named is Trypanosoma brucei. The experiment in a line: Assay 3 Trypanosoma brucei cell growth inhibition assay. It is filed as cell-based. The following applies: T. b. brucei BSF427, 69 h + 4 h resazurin, maximum threshold 8.0, read-out: pEC50 value against Trypanosoma brucei (converted). Here is the method: Measurement of the ability of the compounds to inhibit trypanosome (T. b. brucei, BSF427, VSG118) cell growth was performed using a modification of the cell viability assay previously described by Raz et al. (Raz B.; Iten M.; Grether-Buhler Y.; Kaminski R.; Brun R. The Alamar Blue assay to determine drug sensitivity of African trypanosomes (T. b. rhodesiense and T. b. gambiense) in vitro. Acta Trop. 1997, 68, 139-147). Compounds were dissolved in DMSO at a top concentration of 10 mM and serially diluted in half log steps to achieve a range of final assay concentrations of 50 μM to 0.5 nM. Compound at each concentration (200-fold final) was added to clear 96-well tissue culture plates in a volume of 1 μL. Then 2000 cells per well in relevant growth medium (HMI-9T for T. brucei, a modification of HMI-9 as described by Hurumi et al. (Hirumi H.; Hirumi K. Continuous cultivation of Trypanosoma brucei blood stream forms in a medium containing a low concentration of serum-protein without feeder cell-layers. J. Parasitol. 1989, 75, 985-989.) where 0.2 mM 2-mercaptoethanol was replaced with 0.056 mM thiolglycerol, and MEM with 10% FBS for MRC5) were then added to columns 1-11 of the plates in a volume of 199 μL. To column 12, 200 μL of medium was added to provide a no cells control. Plates were then incubated at 37° C. in an atmosphere of 5% CO2 for 69 h, before the addition of 20 μL of 500 μM rezasurin solution, and a further incubation period of 4 h. Plates were then read on a BioTek flx800 fluorescent plate reader, and percentage inhibition was compared to the maximum and minimum assay controls. Concentration effect curves were fitted using nonlinear regression using XLFit 4.2 and EC50 values determined.
In general terms: Alamar Blue is a resazurin reagent that responds to reducing activity.

Data set [3] is described as follows: Assay 1 intramacrophage Leishmania donovani assay, THP-1 cell count (cytotoxicity readout). It is filed as cell-based. The following applies: human, minimum threshold 4.3, read-out: cytotoxicity against THP-1 cells, pEC50 value (converted). As for the experimental part:
as §1

The nature of data set [4]: Assay 4 solubility assay, ChemiLuminescent Nitrogen Detection (CLND). The following applies: phosphate buffered saline, pH 7.4, aqueous buffer, kinetic from dmso stock, pH 7.4 PBS, from 10 mM DMSO stock, 1 h at room temperature. It is filed as physicochemical. The method in brief: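 Kinetic solubility: 10 mM DMSO stock diluted 5 µl into 100 µl pH 7.4 PBS, incubated 1 h at room temperature, then filtered. Filtrate quantified by HPLC with chemiluminescent nitrogen detection against ondansetron and caffeine standards; solubility in µM by linear-regression calibration.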

The nature of data set [5]: Assay 5 Leishmania donovani intracellular assay, cytotoxicity against THP-1 cells. In kind it is cell-based. As to conditions: human, total number of THP-1 cells, minimum threshold 4.3, read-out: cytotoxicity against THP-1 cells, pEC50 value (converted). Here is the method: Compounds were dispensed into black 384-well assay plates (Greiner) by acoustic dispensing (LabCyte ECHO). For potency determinations, eleven-point, one in three dilution curves were generated, with a top concentration of 50 μM. THP-1 human monocytes cells were dispensed in T225 tissue culture flasks and differentiated using 30 nM of PMA, after 24 hours they were infected overnight using Leishmania donovani expressing Green Fluorescent Protein (eGFP) amastigotes in the same T225 tissue culture flasks at a multiplicity of infection of 10. Next, any remaining free amastigotes were washed away with PBS and the infected THP-1 cells were harvested by trypsinisation. The infected cells were then plated into 384-well plates containing the compounds to be tested, at 3000 cells per well in RPMI media with 2% FBS and 25 mM Sodium bicarbonate. After 96 h incubation at 37° C. in presence of 5% CO2, the plates were fixed with 4% formaldehyde for 30 minutes, washed with PBS and stained with 0.1 mg/mL of DAPI for 30 minutes and washed again with PBS. The plates were imaged on a Perkin Elmer Opera high-content imaging system using a 20× air objective with two expositions, one for DAPI stain and other for eGFP. Images were analysed using the Acapella building blocks system (Perkin Elmer). The image analysis algorithm first identified the THP-1 nuclei followed by demarcation of the cytoplasm and identification of intracellular amastigotes. This algorithm reported mean number of parasites per THP-1 cell, the percentage of infected THP-1 cells and the total number of THP-1 cells.

Data set [6] has as its system Trypanosoma cruzi. The experiment in a line: Assay 2 Trypanosoma cruzi intracellular assay (infected Vero cells). It is filed as cell-based. As to conditions: 72 h, read-out: pEC50 value against Trypanosoma cruzi (converted). As for the experimental part: Compounds were dispensed into black 384-well assay plates (Corning) by acoustic dispensing (LabCyte ECHO). For potency determinations, ten-point one in three dilution curves were generated, with a top concentration of 50 μM. Vero cells were infected overnight with T. cruzi trypomastigotes in T225 tissue culture flasks at a multiplicity of infection of 5. Next, any remaining free trypomastigotes were washed away with serum free MEM media and the infected Vero cells were harvested by trypsinisation. The infected Vero cells were then plated into 384-well plates containing the compounds to be tested, at 4000 cells per well in MEM media with 1% FCS. After 72 h incubation at 37° C. in presence of 5% CO2, the plates were fixed with 4% formaldehyde for 20 minutes at room temperature and stained with 5 μg/ml Hoechst 33342. The plates were imaged on a Perkin Elmer Operetta high-content imaging system using a 20× objective. Images were analysed using the Columbus system (Perkin Elmer). The image analysis algorithm first identified the Vero nuclei followed by demarcation of the cytoplasm and identification of intracellular amastigotes. This algorithm reported mean number of parasites per Vero cell and total number of Vero cells.

On to `O=S(=O)(Nc1ccc(F)c(-c2cn3nc(N4CCOCC4)cnc3n2)c1)C1CCCC1` [Example 33, N-(4-fluoro-3-(2-morpholinoimidazo [1,2-b][1,2,4]triazin-6-yl)phenyl)cyclo-pentanesulfonamide], for which the EC50 at 72 h in data set [1] is 0.794 to 3.16 µM. Further, the EC50 is 10 to 39.8 µM with Trypanosoma cruzi [2] and over 50.1 µM in the data set with Leishmania donovani.
For the molecule `O=C(Nc1ccc(F)c(-c2cn3nc(-c4ccc(CCN5CCOCC5)cc4)cnc3n2)c1)N1CCCC1` [Example 39, N-(4-fluoro-3-(2-(4-(2-morpholinoethyl)phenyl)imidazo[1,2-b][1,2,4]triazin-6-yl)phenyl) pyrrolidine-1-carboxamide], the EC50 in the data set with Trypanosoma cruzi [2] is 0.00501 to 0.631 µM; in the data set with Trypanosoma brucei it was at least 20 µM; with Leishmania donovani, over 50.1 µM.
As for `COc1ccc(CNCc2cccc(-c3cnc4nc(-c5cc(NC(=O)N6CCCC6)ccc5F)cn4n3)c2)cc1` [Example 45, N-(4-fluoro-3-(2-(3-(((4-methoxybenzyl)amino)methyl)phenyl)imidazo [1,2-b][1,2,4]triazin-6-yl)phenyl)pyrrolidine-1-carboxamide], the EC50 at 96 h in data set [3] is 3.98 to 15.8 µM; in data set [5] it was 2.51 to 10 µM. Further, the EC50 at 72 h in data set [1] is 0.794 to 3.16 µM. For the same molecule, the EC50 with Trypanosoma cruzi [2] was 0.00501 to 0.631 µM. This molecule yielded a solubility at 1 h in data set [4] of 10 to 83 µM (≈ 5.52 to 45.8 µg/mL).
Take `Cc1noc(C)c1S(=O)(=O)Nc1ccc(F)c(-c2cn3nc(N4CCOCC4)cnc3n2)c1` [Example 53, N-(4-fluoro-3-(2-morpholinoimidazo[1,2-b] [1,2,4]triazin-6-yl)phenyl)-3,5-dimethyl-isoxazole-4-sulfonamide]: the EC50 in the data set with Trypanosoma cruzi [2] is 10 to 39.8 µM; in the data set on Trypanosoma brucei it was at least 20 µM; in the data set on Leishmania donovani, over 50.1 µM.
Take `CN(C)S(=O)(=O)Nc1ccc(F)c(-c2cn3nc(N4CCOCC4)cnc3n2)c1` [Example 32, N-(4-fluoro-3-(2-morpholinoimidazo [1,2-b][1,2,4]triazin-6-yl)phenyl)-N′-dimethylsulfamide]: the values for the EC50 in the data set on Trypanosoma cruzi [2], in the data set on Trypanosoma brucei and in the data set on Leishmania donovani were 10 to 39.8 µM, at least 20 µM and over 50.1 µM, respectively.
As to `O=S(=O)(Nc1ccc(F)c(-c2cn3nc(N4CCOCC4)cnc3n2)c1)N1CCCC1` [Example 10, N-(4-fluoro-3-(2-morpholinoimidazo[1,2-b][1,2,4]triazin-6-yl)phenyl)pyrrolidine-1-sulfonamide], the figures for the EC50 in the data set on Trypanosoma cruzi [2], in the data set with Trypanosoma cruzi [6] and in the data set with Trypanosoma brucei were 10 to 39.8 µM, 20 µM and at least 20 µM, respectively.
As for `CN(C)c1ccc(-c2cnc3nc(-c4cc(NC(=O)N5CCCC5)ccc4F)cn3n2)cn1` [Example 16, N-(3-(2-(6-(dimethyl-amino)pyridin-3-yl)imidazo[1,2-b][1,2,4]triazin-6-yl)-4-fluorophenyl)pyrrolidine-1-carboxamide], the results for the EC50 with Trypanosoma cruzi [2], with Trypanosoma brucei and with Leishmania donovani were 0.00501 to 0.631 µM, at least 20 µM and over 50.1 µM, respectively. In data set [4], this molecule came in with a solubility at 1 h of 1 to 6 µM (≈ 0.446 to 2.68 µg/mL).

(Values after patent US10065965B2, “Imidazo[1,2-B][1,2,4]triazine derivatives as antiparasitic agents” (GlaxoSmithKline Intellectual Property Development Limited, priority 2015, dated 2018).)
